Laboratory results taken from patent US7572753B2 (priority 2005, dated 2009).

Test system: Pyricularia oryzae
Format: in vivo
Details: 300 ppm, greenhouse foliar application spray on rice (var. Lemont) plants, inoculated within 24 hours from spraying

SMILES: N#CCn1nnc(-c2ccccc2)n1 [Example 1, 5-phenyl-2H-tetrazole-2-acetonitrile]
- Percent (%) disease control, Rice Blast: 70%
